Source: ChEMBL document CHEMBL4627293, “Synthesis and in vitro activity of asymmetric indole-based bisamidine compounds against Gram-positive and Gram-negative pathogens” (2020)
Values after ≈ are worked out from the molar mass of the structure shown.

What was measured:
Type in all cases: functional
[1] = system: Staphylococcus aureus; test: Antimicrobial activity against methicillin-sensitive Staphylococcus aureus ATCC 29213
[2] = system: Staphylococcus aureus; test: Antimicrobial activity against methicillin- resistant Staphylococcus aureus ATCC 33591
[3] = system: Enterococcus faecalis; test: Antimicrobial activity against Vancomycin-sensitive Enterococcus faecalis ATCC 29212
[4] = system: Enterococcus faecalis; test: Antimicrobial activity against Vancomycin-resistant Enterococcus faecalis ATCC 51299
[5] = system: Escherichia coli; test: Antimicrobial activity against Escherichia coli ATCC 25922
[6] = system: Klebsiella pneumoniae; test: Antimicrobial activity against ESBL-producing Klebsiella pneumoniae ATCC 700603
[7] = system: Klebsiella pneumoniae; test: Antimicrobial activity against NDM-1 producing Klebsiella pneumoniae ATCC BAA-2146
[8] = system: Pseudomonas aeruginosa; test: Antimicrobial activity against Pseudomonas aeruginosa ATCC 27853
[9] = system: Citrobacter freundii; test: Antimicrobial activity against Citrobacter freundii ATCC 43864
[10] = system: Providencia rettgeri; test: Antimicrobial activity against Providencia rettgeri ATCC 31052
[11] = system: Proteus vulgaris; test: Antimicrobial activity against Proteus vulgaris ATCC 29905
[12] = system: Staphylococcus epidermidis; test: Antimicrobial activity against methicillin-susceptible Staphylococcus epidermidis ATCC 12228
[13] = system: Enterococcus faecium; test: Antimicrobial activity against vancomycin-resistant Enterococcus faecium ATCC 700221
[14] = system: Klebsiella pneumoniae; test: Antimicrobial activity against Klebsiella pneumoniae 7
[15] = system: Acinetobacter calcoaceticus; test: Antimicrobial activity against Acinetobacter calcoaceticus ATCC 19606
[16] = system: Klebsiella aerogenes; test: Antimicrobial activity against Enterobacter aerogenes ATCC 45102

CN(C)C(=N)c1ccc2cc(-c3ccc(Oc4ccc(-c5cc6ccc(C(=N)N(C)C)cc6[nH]5)cc4)cc3)[nH]c2c1
MIC [1]: 0.25 µg/mL (≈ 0.462 µM) | MIC [2]: 0.25 µg/mL (≈ 0.462 µM) | MIC [3]: 0.5 µg/mL (≈ 0.925 µM) | MIC [4]: 1 µg/mL (≈ 1.85 µM) | MIC [5]: 4 µg/mL (≈ 7.4 µM) | MIC [6]: 8 µg/mL (≈ 14.8 µM) | MIC [7]: 8 µg/mL (≈ 14.8 µM) | MIC [8]: 128 µg/mL (≈ 237 µM) | MIC [9]: 8 µg/mL (≈ 14.8 µM) | MIC [10]: 8 µg/mL (≈ 14.8 µM) | MIC [11]: 8 µg/mL (≈ 14.8 µM) | MIC [12]: 0.125 µg/mL (≈ 0.231 µM) | MIC [13]: 2 µg/mL (≈ 3.7 µM) | MIC [14]: 8 µg/mL (≈ 14.8 µM) | MIC [15]: > 128 µg/mL

CNC(=N)c1ccc2cc(-c3ccc(Oc4ccc(-c5cc6ccc(C(=N)NC)cc6[nH]5)cc4)cc3)[nH]c2c1
MIC [1]: 1 µg/mL (≈ 1.95 µM) | MIC [2]: 1 µg/mL (≈ 1.95 µM) | MIC [3]: 1 µg/mL (≈ 1.95 µM) | MIC [4]: 1 µg/mL (≈ 1.95 µM) | MIC [5]: 128 µg/mL (≈ 250 µM) | MIC [6]: > 128 µg/mL | MIC [7]: > 128 µg/mL | MIC [8]: > 128 µg/mL | MIC [16]: > 128 µg/mL | MIC [9]: > 128 µg/mL | MIC [10]: > 128 µg/mL | MIC [11]: > 128 µg/mL

CNC(=N)c1ccc2cc(-c3ccc(Oc4ccc(-c5cc6ccc(C(=N)NC)cc6[nH]5)c(C(F)(F)F)c4)cc3)[nH]c2c1
MIC [1]: 0.5 µg/mL (≈ 0.861 µM) | MIC [2]: 0.5 µg/mL (≈ 0.861 µM) | MIC [3]: 0.5 µg/mL (≈ 0.861 µM) | MIC [4]: 1 µg/mL (≈ 1.72 µM) | MIC [5]: 4 µg/mL (≈ 6.89 µM) | MIC [6]: 16 µg/mL (≈ 27.6 µM) | MIC [7]: 8 µg/mL (≈ 13.8 µM) | MIC [8]: 64 µg/mL (≈ 110 µM) | MIC [9]: 8 µg/mL (≈ 13.8 µM) | MIC [10]: 32 µg/mL (≈ 55.1 µM) | MIC [11]: 16 µg/mL (≈ 27.6 µM) | MIC [12]: 0.25 µg/mL (≈ 0.431 µM) | MIC [13]: 0.5 µg/mL (≈ 0.861 µM) | MIC [14]: 8 µg/mL (≈ 13.8 µM) | MIC [15]: 32 µg/mL (≈ 55.1 µM)

CC(C)NC(=N)c1ccc2cc(-c3ccc(Oc4ccc(-c5cc6ccc(C(=N)NC(C)C)cc6[nH]5)nc4)cc3)[nH]c2c1
MIC [1]: 0.25 µg/mL (≈ 0.439 µM) | MIC [2]: 0.125 µg/mL (≈ 0.219 µM) | MIC [3]: 0.25 µg/mL (≈ 0.439 µM) | MIC [4]: 0.5 µg/mL (≈ 0.878 µM) | MIC [5]: 2 µg/mL (≈ 3.51 µM) | MIC [6]: 8 µg/mL (≈ 14 µM) | MIC [7]: 8 µg/mL (≈ 14 µM) | MIC [8]: 64 µg/mL (≈ 112 µM) | MIC [9]: 4 µg/mL (≈ 7.02 µM) | MIC [10]: 4 µg/mL (≈ 7.02 µM) | MIC [11]: 8 µg/mL (≈ 14 µM) | MIC [12]: 0.125 µg/mL (≈ 0.219 µM) | MIC [13]: 0.25 µg/mL (≈ 0.439 µM) | MIC [14]: 8 µg/mL (≈ 14 µM) | MIC [15]: 16 µg/mL (≈ 28.1 µM)

CNC(=N)c1ccc2cc(-c3ccc(Oc4ccc(-c5cc6ccc(C(=N)NC)cc6[nH]5)c(OC)c4)cc3)[nH]c2c1
MIC [1]: 1 µg/mL (≈ 1.84 µM) | MIC [2]: 1 µg/mL (≈ 1.84 µM) | MIC [3]: 0.5 µg/mL (≈ 0.921 µM) | MIC [4]: 0.5 µg/mL (≈ 0.921 µM) | MIC [5]: 16 µg/mL (≈ 29.5 µM) | MIC [6]: 128 µg/mL (≈ 236 µM) | MIC [7]: 32 µg/mL (≈ 59 µM) | MIC [8]: > 128 µg/mL | MIC [9]: 32 µg/mL (≈ 59 µM) | MIC [10]: > 128 µg/mL | MIC [11]: 128 µg/mL (≈ 236 µM) | MIC [12]: 0.25 µg/mL (≈ 0.461 µM) | MIC [13]: 1 µg/mL (≈ 1.84 µM) | MIC [14]: 64 µg/mL (≈ 118 µM) | MIC [15]: > 128 µg/mL

CNC(=N)c1ccc2cc(-c3ccc(Oc4ccc(-c5cc6ccc(C(=N)NC)cc6[nH]5)c(Cl)c4)cc3)[nH]c2c1
MIC [1]: 4 µg/mL (≈ 7.31 µM) | MIC [2]: 4 µg/mL (≈ 7.31 µM) | MIC [3]: 16 µg/mL (≈ 29.2 µM) | MIC [4]: 16 µg/mL (≈ 29.2 µM) | MIC [5]: 64 µg/mL (≈ 117 µM) | MIC [6]: 64 µg/mL (≈ 117 µM) | MIC [7]: 64 µg/mL (≈ 117 µM) | MIC [8]: 128 µg/mL (≈ 234 µM) | MIC [9]: 64 µg/mL (≈ 117 µM) | MIC [10]: 128 µg/mL (≈ 234 µM) | MIC [11]: 64 µg/mL (≈ 117 µM) | MIC [12]: 2 µg/mL (≈ 3.66 µM) | MIC [13]: 8 µg/mL (≈ 14.6 µM) | MIC [14]: 64 µg/mL (≈ 117 µM) | MIC [15]: 128 µg/mL (≈ 234 µM)

CN(C)C(=N)c1ccc2cc(-c3ccc(Oc4ccc(-c5cc6ccc(C(=N)N(C)C)cc6[nH]5)c(C(F)(F)F)c4)cn3)[nH]c2c1
MIC [1]: 1 µg/mL (≈ 1.64 µM) | MIC [2]: 0.5 µg/mL (≈ 0.82 µM) | MIC [3]: 2 µg/mL (≈ 3.28 µM) | MIC [4]: 2 µg/mL (≈ 3.28 µM) | MIC [5]: 8 µg/mL (≈ 13.1 µM) | MIC [6]: 32 µg/mL (≈ 52.5 µM) | MIC [7]: 32 µg/mL (≈ 52.5 µM) | MIC [8]: > 128 µg/mL | MIC [9]: 16 µg/mL (≈ 26.2 µM) | MIC [10]: 128 µg/mL (≈ 210 µM) | MIC [11]: 32 µg/mL (≈ 52.5 µM) | MIC [12]: 0.5 µg/mL (≈ 0.82 µM) | MIC [13]: 1 µg/mL (≈ 1.64 µM) | MIC [14]: 32 µg/mL (≈ 52.5 µM) | MIC [15]: > 128 µg/mL

CC(C)NC(=N)c1ccc2cc(-c3ccc(Oc4ccc(-c5cc6ccc(C(=N)NC(C)C)cc6[nH]5)cn4)cc3)[nH]c2c1
MIC [1]: 0.25 µg/mL (≈ 0.439 µM) | MIC [2]: 0.25 µg/mL (≈ 0.439 µM) | MIC [3]: 1 µg/mL (≈ 1.76 µM) | MIC [4]: 1 µg/mL (≈ 1.76 µM) | MIC [5]: 4 µg/mL (≈ 7.02 µM) | MIC [6]: 8 µg/mL (≈ 14 µM) | MIC [7]: 16 µg/mL (≈ 28.1 µM) | MIC [8]: 32 µg/mL (≈ 56.2 µM) | MIC [9]: 8 µg/mL (≈ 14 µM) | MIC [10]: 16 µg/mL (≈ 28.1 µM) | MIC [11]: 16 µg/mL (≈ 28.1 µM) | MIC [12]: 0.25 µg/mL (≈ 0.439 µM) | MIC [13]: 0.25 µg/mL (≈ 0.439 µM) | MIC [14]: 8 µg/mL (≈ 14 µM) | MIC [15]: 64 µg/mL (≈ 112 µM)

CC(C)NC(=N)c1ccc2cc(-c3ccc(Oc4ccc(-c5cc6ccc(C(=N)NC(C)C)cc6[nH]5)c(Cl)c4)cc3)[nH]c2c1
MIC [1]: 8 µg/mL (≈ 13.3 µM) | MIC [2]: 8 µg/mL (≈ 13.3 µM) | MIC [3]: 16 µg/mL (≈ 26.5 µM) | MIC [4]: 16 µg/mL (≈ 26.5 µM) | MIC [5]: 128 µg/mL (≈ 212 µM) | MIC [6]: > 128 µg/mL | MIC [7]: > 128 µg/mL | MIC [8]: > 128 µg/mL | MIC [9]: > 128 µg/mL | MIC [10]: > 128 µg/mL | MIC [11]: > 128 µg/mL | MIC [12]: 1 µg/mL (≈ 1.66 µM) | MIC [13]: 8 µg/mL (≈ 13.3 µM) | MIC [14]: > 128 µg/mL | MIC [15]: > 128 µg/mL

CN(C)C(=N)c1ccc2cc(-c3ccc(Oc4ccc(-c5cc6ccc(C(=N)N(C)C)cc6[nH]5)c(C(F)(F)F)c4)cc3)[nH]c2c1
MIC [1]: 2 µg/mL (≈ 3.29 µM) | MIC [2]: 2 µg/mL (≈ 3.29 µM) | MIC [3]: 8 µg/mL (≈ 13.1 µM) | MIC [4]: 8 µg/mL (≈ 13.1 µM) | MIC [5]: 64 µg/mL (≈ 105 µM) | MIC [6]: > 128 µg/mL | MIC [7]: > 128 µg/mL | MIC [8]: > 128 µg/mL | MIC [9]: 64 µg/mL (≈ 105 µM) | MIC [10]: > 128 µg/mL | MIC [11]: 128 µg/mL (≈ 210 µM) | MIC [12]: 2 µg/mL (≈ 3.29 µM) | MIC [13]: 8 µg/mL (≈ 13.1 µM) | MIC [14]: > 128 µg/mL | MIC [15]: > 128 µg/mL
